The source of these data is US20240218022A1, “ANTI-VISTA MACROCYCLIC PEPTIDES AND COMPOSITIONS” (BRISTOL-MYERS SQUIBB COMPANY, priority 2022, published 2024).

In the test the target is T1, mouse VISTA (mVISTA) (Mus musculus, UniProt Q9D659).
T1 construct: expressed in transfected cells; host or cells: Human embryonic kidney 293T cells
T1 sequence (Q9D659 33-308): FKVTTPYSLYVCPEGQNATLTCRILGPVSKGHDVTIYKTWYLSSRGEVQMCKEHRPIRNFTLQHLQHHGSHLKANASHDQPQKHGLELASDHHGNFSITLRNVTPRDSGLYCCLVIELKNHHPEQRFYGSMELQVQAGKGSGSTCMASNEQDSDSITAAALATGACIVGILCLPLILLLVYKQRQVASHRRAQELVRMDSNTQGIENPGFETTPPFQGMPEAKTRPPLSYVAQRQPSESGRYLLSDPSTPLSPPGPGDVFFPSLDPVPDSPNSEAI
Description: Cell-Based Binding High-Content Assay For mVISTA (HC CBA mVISTA). The essentials:
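This high-content binding assay uses HEK293T cells expressing murine VISTA, measuring displacement of 2 nM biotinylated peptide by fluorescent streptavidin imaging. IC50 values come from four-parameter logistic fitting.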

Where [1] appears, read: cell-based binding high-content assay, mVISTA, read-out: HC CBA miPr ISTA IC50.

pIC50: −log10 of the molar value. Like-named read-outs stand apart in the source and are kept apart here. Starred links: 1 amine or outer side, 2 acyl side, 3 side chain; linkers in the order of their positions; H or OH if unused. Positions of bridges follow the written chain, without caps; N, C: chain ends. Non-standard residues stand in square brackets, D forms with d. Residues, ends and D or L forms follow the SMILES beside them. NMeW = CN[C@@H](Cc1c[nH]c2ccccc12)C(=O)O; γGlu = O=C(O)[C@H](CCC(=O)[*:2])N[*:1]; 2Nal = N[C@@H](Cc1ccc2ccccc2c1)C(=O)O; βAsp = O=C(O)[C@H](CC(=O)[*:2])N[*:1]; Ahp(2) = CCCCC[C@H](N)C(=O)O; NMeNle = CCCC[C@H](NC)C(=O)O; Tle = CC(C)(C)[C@H](N)C(=O)O; NMeS = CN[C@@H](CO)C(=O)O; NHexGly = CCCCCCNCC(=O)O; Nle = CCCC[C@H](N)C(=O)O; Orn = NCCC[C@H](N)C(=O)O; Aun = NCCCCCCCCCCC(=O)O; Dab = NCC[C@H](N)C(=O)O; AEEA = NCCOCCOCC(=O)O

For `CCCCCCN1CC(=O)N[C@@H](Cc2ccc(O)cc2)C(=O)N[C@@H](CC(C)C)C(=O)NCC(=O)N[C@@H](CCCNC(=N)N)C(=O)N(C)[C@@H](CCCC)C(=O)N[C@@H](CCCCC)C(=O)N2CCC[C@H]2C(=O)N[C@@H](C(C)C)C(=O)N[C@@H](CO)C(=O)N[C@H](C(=O)NCC(=O)O)CSCC(=O)N[C@@H](Cc2ccccc2)C(=O)N[C@@H](Cc2ccc(O)cc2)C(=O)N[C@@H](CC(=O)O)C1=O` [Example 1080] ({CH2CO}-FYD[NHexGly]YLGR[NMeNle][Ahp(2)]PVSCG-OH; thioether N-14), under “293T cells expressing mouse VISTA, competition with biotinylated peptide (2 nM), read-out: CBA mVISTA IC50”, the pIC50 is 7.73.

`CCCCCCN1CC(=O)N[C@@H](Cc2ccc(O)cc2)C(=O)N[C@@H](CCCC)C(=O)N[C@@H](CC(N)=O)C(=O)N[C@@H](CCCNC(=N)N)C(=O)N(C)[C@@H](CCCC)C(=O)N[C@@H](CCCCC)C(=O)N2CCC[C@H]2C(=O)N[C@@H](C(C)C)C(=O)N[C@@H](CC(=O)O)C(=O)N[C@H](C(=O)NCCOCCOCC(=O)N[C@@H](CC(=O)NCCOCCOCC(=O)NCCCCCCCCCCC(=O)O)C(=O)O)CSCC(=O)N[C@@H](Cc2ccc3ccccc3c2)C(=O)N[C@@H](Cc2c[nH]c3ccccc23)C(=O)N[C@@H](CC(=O)O)C1=O` [Example 2200] ({CH2CO}-[2Nal]WD[NHexGly]Y[Nle]NR[NMeNle][Ahp(2)]PVDC[AEEA][βAsp][AEEA][Aun]-OH; thioether N-14): the pIC50 (read-out: HC CBA mVISTA IC50) was 7.78.

As for `CCCCCCN1CC(=O)N[C@@H](Cc2ccc(O)cc2)C(=O)N[C@@H](CCCC)C(=O)N[C@@H](CC(=O)O)C(=O)N[C@@H](CCCNC(=N)N)C(=O)N[C@@H](CC(C)C)C(=O)N[C@@H](CCCCC)C(=O)N2CCC[C@H]2C(=O)N[C@@H](C(C)C)C(=O)N[C@@H](CC(N)=O)C(=O)N[C@H](C(=O)NCCOCCOCC(=O)N[C@@H](CC(=O)O)C(=O)NCCOCCOCC(=O)NCCCCCCCCCCC(=O)O)CSCC(=O)N[C@@H](Cc2ccccc2)C(=O)N[C@@H](Cc2ccc(O)cc2)C(=O)N[C@@H](CC(=O)O)C1=O` (stereo in doubt) [compound 2295], the pIC50 (cell-based binding high-content assay, read-out: HC CBA miPrISTA IC50) is 7.48.

Take `CCCCCCN1CC(=O)N[C@@H](Cc2ccc(O)cc2)C(=O)N[C@@H](CCCC)C(=O)N[C@@H](CC(N)=O)C(=O)N[C@@H](CCCNC(=N)N)C(=O)N(C)[C@@H](Cc2c[nH]c3ccccc23)C(=O)N[C@@H](CCCCC)C(=O)N2CCC[C@H]2C(=O)N[C@@H](C(C)C)C(=O)N[C@@H](CC(=O)O)C(=O)N[C@H](C(=O)NCC(=O)O)CSCC(=O)N[C@@H](Cc2ccccc2)C(=O)N[C@@H](Cc2c[nH]c3ccccc23)C(=O)N[C@@H](CC(=O)O)C1=O` [Example 1410] ({CH2CO}-FWD[NHexGly]Y[Nle]NR[NMeW][Ahp(2)]PVDCG-OH; thioether N-14): under “read-out: HC CBA mVISTA IC50”, the pIC50 is 8.28.

Regarding `CCCCCCN1CC(=O)N[C@@H](Cc2ccc(O)cc2)C(=O)N[C@@H](CC(C)C)C(=O)N[C@@H](CC(N)=O)C(=O)N[C@@H](CCCN)C(=O)N(C)[C@@H](CO)C(=O)N[C@@H](CCCCC)C(=O)N2CCC[C@H]2C(=O)N[C@@H](C(C)(C)C)C(=O)N[C@@H](CC(=O)O)C(=O)N[C@H](C(=O)N[C@@H](CC(=O)NCCOCCOCC(=O)N[C@@H](CC(=O)O)C(=O)NCCOCCOCC(=O)NCCCCCCCCCCC(=O)O)C(=O)O)CSCC(=O)N[C@@H](Cc2ccccc2)C(=O)N[C@@H](Cc2ccc(O)cc2)C(=O)N[C@@H](CC(=O)O)C1=O` [compound 2044] ({CH2CO}-FYD[NHexGly]YLN[Orn][NMeS][Ahp(2)]P[Tle]DC[βAsp][AEEA]D[AEEA][Aun]-OH; thioether N-14), the pIC50 under setting [1] was 7.39.

Consider `CCCCCCN1CC(=O)N[C@@H](Cc2ccc(O)cc2)C(=O)N[C@@H](CCCC)C(=O)N[C@@H](CC(=O)O)C(=O)N[C@@H](CCCNC(=N)N)C(=O)N(C)[C@@H](CCCC)C(=O)N[C@@H](CCCCC)C(=O)N2CCC[C@H]2C(=O)N[C@@H](C(C)(C)C)C(=O)N[C@@H](CO)C(=O)N[C@H](C(=O)N[C@@H](CC(=O)O)C(N)=O)CSCC(=O)N[C@@H](Cc2ccccc2)C(=O)N[C@@H](Cc2c[nH]c3ccccc23)C(=O)N[C@@H](CC(=O)O)C1=O` [Example 1375] ({CH2CO}-FWD[NHexGly]Y[Nle]DR[NMeNle][Ahp(2)]P[Tle]SCD-NH2; thioether N-14), for which, under “read-out: HC CBA mVISTA IC50”, the pIC50 was 7.37.

`CCCCCCN1CC(=O)N[C@@H](Cc2ccc(O)cc2)C(=O)N[C@@H](C(C)C)C(=O)NCC(=O)N[C@@H](CCCNC(=N)N)C(=O)N[C@@H](CC(C)C)C(=O)N[C@@H](CCCCC)C(=O)N2CCC[C@H]2C(=O)N[C@@H](C(C)C)C(=O)N[C@@H](CC(=O)O)C(=O)N[C@H](C(=O)N[C@@H](CO)C(=O)N[C@@H](CCN)C(=O)N[C@@H](CC(N)=O)C(=O)O)CSCC(=O)N[C@@H](Cc2ccc3ccccc3c2)C(=O)N[C@@H](Cc2ccc(O)cc2)C(=O)N[C@@H](CC(=O)O)C1=O` [Example 1164] ({CH2CO}-[2Nal]YD[NHexGly]YVGRL[Ahp(2)]PVDCS[Dab]N-OH; thioether N-14): the pIC50 (293T cells expressing mouse VISTA, competition with biotinylated peptide (2 nM), read-out: HC CBA mVISTA IC50) is 8.01.

As for `CCCCCCN1CC(=O)N[C@@H](Cc2ccc(O)cc2)C(=O)N[C@@H](CCCCC)C(=O)N[C@@H](CC(N)=O)C(=O)N[C@@H](CCCNC(=N)N)C(=O)N(C)[C@@H](CCCC)C(=O)N[C@@H](CCCCC)C(=O)N2CCC[C@H]2C(=O)N[C@@H](C(C)C)C(=O)N[C@@H](CO)C(=O)N[C@H](C(=O)NCC(=O)O)CSCC(=O)N[C@@H](Cc2ccc3ccccc3c2)C(=O)N[C@@H](Cc2c[nH]c3ccccc23)C(=O)N[C@@H](CC(=O)O)C1=O` [compound 1252] ({CH2CO}-[2Nal]WD[NHexGly]Y[Ahp(2)]NR[NMeNle][Ahp(2)]PVSCG-OH; thioether N-14), the pIC50 (cell-based binding high-content assay, mVISTA, the 15th table, read-out: HC CBA mVISTA IC50) is 8.19.

For the compound `CCCCCCN1CC(=O)N[C@@H](Cc2ccc(O)cc2)C(=O)N[C@@H](CC(C)C)C(=O)N[C@@H](CC(N)=O)C(=O)N[C@@H](CCCNC(=N)N)C(=O)N(C)[C@@H](CO)C(=O)N[C@@H](CCCCC)C(=O)N2CCC[C@H]2C(=O)N[C@@H](C(C)(C)C)C(=O)N[C@@H](CC(=O)O)C(=O)N[C@H](C(=O)N[C@@H](CC(=O)NCCOCCOCC(=O)N[C@@H](CC(=O)O)C(=O)NCCOCCOCC(=O)NCCCCCCCCCCC(=O)O)C(=O)O)CSCC(=O)N[C@@H](Cc2ccccc2)C(=O)N[C@@H](Cc2ccc(O)cc2)C(=O)N[C@@H](CC(=O)O)C1=O` [compound 2035] ({CH2CO}-FYD[NHexGly]YLNR[NMeS][Ahp(2)]P[Tle]DC[βAsp][AEEA]D[AEEA][Aun]-OH; thioether N-14), under setting [1], the pIC50 was 7.43.

Take `CCCCCCN1CC(=O)N[C@@H](Cc2ccc(O)cc2)C(=O)N[C@@H](CCCC)C(=O)N[C@@H](CC(N)=O)C(=O)N[C@@H](CCCNC(=N)N)C(=O)N(C)[C@@H](CCCC)C(=O)N[C@@H](CCCCC)C(=O)N2CCC[C@H]2C(=O)N[C@@H](C(C)(C)C)C(=O)N[C@@H](CO)C(=O)N[C@H](C(=O)NCCOCCOCC(=O)N[C@@H](CCC(=O)NCCOCCOCC(=O)NCCCCCCCCCCC(=O)O)C(=O)O)CSCC(=O)N[C@@H](Cc2ccc(O)cc2)C(=O)N[C@@H](Cc2ccc(O)cc2)C(=O)N[C@@H](CC(=O)O)C1=O` [compound 2252] ({CH2CO}-YYD[NHexGly]Y[Nle]NR[NMeNle][Ahp(2)]P[Tle]SC[AEEA][γGlu][AEEA][Aun]-OH; thioether N-14): the pIC50 (read-out: HC CBA mVISTA IC50) was 7.92.
